Results: US11419866B2, “Pharmaceutical composition for sustained release delivery of buprenorphine” (Foresee Pharmaceuticals Co., Ltd., priority 2018, dated 2022)
Marks after values point to notes of the source that are not given here.

Legend:
[1] = Color stabilization by antioxidant in buprenorphine formulation, visual inspection (Example 3); format: physicochemical; details: overtime under stress condition
[2] = Solubility of buprenorphine in BA/OA combination vehicles at room temperature

N[C@@H](CS)C(=O)O [Cys, cysteine]
capacity of color mitigation in buprenorphine formulation [1]: milder color stabilizing effect

N[C@@H](CCC(=O)N[C@@H](CS)C(=O)NCC(=O)O)C(=O)O [Glu, glutathione]
capacity of color mitigation in buprenorphine formulation [1]: milder color stabilizing effect

O=C(O)CCCCC1CCSS1 (stereo not shown) [LipA, lipoic acid]
capacity of color mitigation in buprenorphine formulation [1]: milder color stabilizing effect

OCC(O)CS (stereo not shown) [MTG, monothioglycerol]
benzyl aldehyde formation promoted by thiolated antioxidant (BA/OA solution): positive benzyl aldehyde formation | benzyl aldehyde formation with addition of VC (thiolated antioxidant containing BA/OA solution): inhibition effect of benzyl aldehyde | capacity of color mitigation in buprenorphine formulation [1]: stronger capacity of color mitigation

O=C([O-])CS.[Na+] [STG, sodium thioglycolate]
capacity of color mitigation in buprenorphine formulation [1]: stronger capacity of color mitigation

O=C(O)CS [TGA, thioglycolic acid]
capacity of color mitigation in buprenorphine formulation [1]: stronger capacity of color mitigation

CO[C@]12CC[C@@]3(C[C@@H]1[C@](C)(O)C(C)(C)C)[C@H]1Cc4ccc(O)c5c4[C@@]3(CCN1CC1CC1)[C@H]2O5 [buprenorphine, (25)-2-[(−)-(5R,6R,7R,14S)-9a-cyclo-propyl-methyl-4,5-epoxy-6,14-ethano-3-hydroxy-6-methoxymorphinan-7-yl]-3,3-di-methylbutan-2-ol]
Solubility of buprenorphine ([2]; BA/OA vehicle, OA wt % 0, room temperature): 21.2% | Solubility of buprenorphine ([2]; BA/OA vehicle, OA wt % 5, room temperature): 22.5% | Solubility of buprenorphine ([2]; BA/OA vehicle, OA wt % 10, room temperature): 25.4% | Solubility of buprenorphine ([2]; BA/OA vehicle, OA wt % 15, room temperature): 30.7%* | Solubility of buprenorphine ([2]; BA/OA vehicle, OA wt % 18, room temperature): 30.8%* | Solubility of buprenorphine ([2]; BA/OA vehicle, OA wt % 30, room temperature): 33.1%* | Solubility of buprenorphine ([2]; BA/OA vehicle, OA wt % 40, room temperature): 36.2%* | Solubility of buprenorphine ([2]; OA wt % 100, room temperature): 27.7%
